From ChEMBL document CHEMBL1201862, “PubChem BioAssay data set” (2004)
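Method: 48-hour compound exposure of cells in 96-well plates, five concentrations, linear interpolation of endpoints. GI50 is the concentration that inhibits growth by half.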 Active and inactive are the calls of the source. Rule as the data show it: active = GI50 up to about 1.1 µM and inactive = higher.

Columns and labels:
Assay in all cases: DTP human tumour cell line panel, 48 h
UACC-257 = system: UACC-257
NCI-H522 = system: NCI-H522
UO-31 = system: UO-31
SK-MEL-28 = system: SK-MEL-28
786-0 = system: 786-0
A549 = system: A549
LOX IMVI = system: LOX IMVI
HT-29 = system: HT-29
SN12C = system: SN12C
NCI-H226 = system: NCI-H226
ACHN = system: ACHN
UACC-62 = system: UACC-62
SF-268 = system: SF-268
HCC 2998 = system: HCC 2998
HCT-15 = system: HCT-15
MOLT-4 = system: MOLT-4
OVCAR-3 = system: OVCAR-3
HCT-116 = system: HCT-116
CAKI-1 = system: CAKI-1

| Compound | GI50 (UACC-257) | GI50 (NCI-H522) | GI50 (UO-31) | GI50 (SK-MEL-28) | GI50 (786-0) | GI50 (A549) | GI50 (LOX IMVI) | GI50 (HT-29) | GI50 (SN12C) | GI50 (NCI-H226) | GI50 (ACHN) | GI50 (UACC-62) | GI50 (SF-268) | GI50 (HCC 2998) | GI50 (HCT-15) [µM] | GI50 (MOLT-4) | GI50 (OVCAR-3) | GI50 (HCT-116) | GI50 (CAKI-1) |
| --- | --- | --- | --- | --- | --- | --- | --- | --- | --- | --- | --- | --- | --- | --- | --- | --- | --- | --- | --- |
| O=C1NC2C(CCO)CC=C[C@H]2c2cc3c(cc21)OCO3 (stereo partly specified) | > 100 µM (inactive) | > 100 µM (inactive) | > 100 µM (inactive) | > 100 µM (inactive) | > 100 µM (inactive) | > 100 µM (inactive) | > 100 µM (inactive) | > 100 µM (inactive) | > 100 µM (inactive) | 75.3 µM (inactive) | > 100 µM (inactive) | > 100 µM (inactive) | > 100 µM (inactive) | > 10 µM (inactive) | > 100 | > 100 µM (inactive) | > 100 µM (inactive) | > 100 µM (inactive) |  |
| COc1cc2c(cc1OCCCCCOc1cc3c(cc1OC)C(=O)N1CCC[C@H]1CN3)N=C[C@@H]1CCCN1C2=O | 12.3 µM (inactive) | 1.36 µM (inactive) | 12.3 µM (inactive) | 11.2 µM (inactive) | 3.94 µM (inactive) | 5.46 µM (inactive) | 1.34 µM (inactive) | 5.04 µM (inactive) | 0.509 µM (active) | 2.48 µM (inactive) | 4.03 µM (inactive) | 1.56 µM (inactive) | 3.57 µM (inactive) |  | 13.7 | 2.4 µM (inactive) | 12.6 µM (inactive) | 4.85 µM (inactive) | 9.48 µM (inactive) |
| O=C(NCCCN1CCN(CCCNC(=O)Nc2cc(Cl)ccc2Cl)CC1)Nc1cc(Cl)ccc1Cl | 16.5 µM (inactive) | 38.6 µM (inactive) | > 100 µM (inactive) | 60.3 µM (inactive) | 32.5 µM (inactive) | > 100 µM (inactive) | 37 µM (inactive) | 51.4 µM (inactive) | 83 µM (inactive) | > 100 µM (inactive) | > 100 µM (inactive) | 64.7 µM (inactive) | 87.3 µM (inactive) |  | 65.3 | > 100 µM (inactive) | > 100 µM (inactive) | 79.3 µM (inactive) | > 100 µM (inactive) |
| CN(C)c1ccc(C(C#N)NNC(=O)Cc2ccccc2)cc1 (stereo unspecified) | > 100 µM (inactive) | > 100 µM (inactive) | > 100 µM (inactive) | > 100 µM (inactive) | > 100 µM (inactive) | > 100 µM (inactive) | > 100 µM (inactive) | > 100 µM (inactive) | > 100 µM (inactive) | > 100 µM (inactive) | > 100 µM (inactive) | > 100 µM (inactive) | > 100 µM (inactive) |  | > 100 | > 100 µM (inactive) | > 100 µM (inactive) | > 100 µM (inactive) | > 100 µM (inactive) |
| CCN(CC)CCCNC(=O)Cc1ccccc1Nc1c(Cl)cccc1Cl | 4.03 µM (inactive) |  | 11.2 µM (inactive) | 12.5 µM (inactive) | 0.465 µM (active) | 18.3 µM (inactive) | 12.3 µM (inactive) | 4.48 µM (inactive) | 14.5 µM (inactive) | 18.5 µM (inactive) | 8.53 µM (inactive) | 14.3 µM (inactive) | 16.1 µM (inactive) | 3.01 µM (inactive) | 14.9 | 11.4 µM (inactive) | 16 µM (inactive) | 14 µM (inactive) |  |
| Clc1ccc(COC(Cn2ccnc2)c2ccc(Cl)cc2Cl)c(Cl)c1 (stereo unspecified) [MICONAZOLE] | 13.6 µM (inactive) | 10 µM (inactive) | 3.82 µM (inactive) | 17.1 µM (inactive) | 7.33 µM (inactive) | 9.64 µM (inactive) | 12.7 µM (inactive) |  | 13.6 µM (inactive) |  | 15 µM (inactive) | 11.5 µM (inactive) | 11.2 µM (inactive) | 17.1 µM (inactive) | 10.8 | 4.33 µM (inactive) | 12.2 µM (inactive) | 5.12 µM (inactive) | 13.6 µM (inactive) |
